Here are results for one molecule from patent US11033538B2, “Dosing regimens for the treatment of lysosomal storage diseases using pharmacological chaperones” (Amicus Therapeutics, Inc., priority 2007, dated 2021).

Each structure is given as a SMILES string. Entries after “also recorded” stand apart in the source; their conditions may differ.

Data set [1] has as its system GL-3. In words: Example 5, skin GL-3 levels by light and electron microscopy. To be noted: 10 patients, baseline and after treatment. Type of data set: in vivo, human. As to the method: Eight patients in the study received an ascending dose of 25, 100, and then 250 mg b.i.d. over 6 weeks, followed by 50 mg/day for the remainder of the study.
Skin GL-3 levels at baseline and after treatment as assessed by light and electron microscopy are available for 10 patients.

In data set [2] the test system is Fabry patients. In words: Example 6, cardiac analysis. Type of data set: in vivo, human. As to the method: In addition to the biopsies described above, MRIs, electrocardiograms and echocardiograms with strain rate evaluations was performed at baseline and periodically throughout the study to assess cardiac morphology (e.g., left ventricular hyertrophy) and cardiac function (e.g., ejection fraction and conduction/rhythm abnormalities).

Data set [3] in a line: Example 13, tissue half-life of DGJ. Type of data set: in vivo, mice. To be noted: male, hR301Q GLA Tg/KO, mouse, oral; skin, heart, kidney; after 4 weeks 100 mg/kg/day.

What is called half-life is the time needed for the level to fall by half in the phase considered. The low end stands for rapid decline, the high end for slow decline. On to `OC[C@H]1NC[C@H](O)[C@@H](O)[C@H]1O` [DGJ, (2R,3S,4R,5S)-2-(hydroxymethyl) piperdine-3,4,5-triol], for which the “skin GL-3 levels” value in data set [1] was “Seven patients had skin GL-3 levels that were normal or near normal both before and after treatment; also recorded: Results for the three other patients were difficult to interpret”. Moreover, in data set [2] (2 good responders with abnormally high left ventricle mass, 48 weeks), the left ventricle mass result is “no change in left ventricle mass”. The “decrease in left ventricle mass” value in data set [2] (one good responder with abnormally high left ventricle mass, 12 weeks) turned out to be 8%. In addition, the “ejection fraction following treatment” value in data set [2] (two of three good responders with abnormal ejection fraction before treatment) is given as more than 55%. The molecule also showed a half-life in data set [3] of 6 to 7 h.
